Source: a melting point compilation (Tetko et al.; mined from patent text by program, amines drawn as free bases though some values may be those of a salt)

| SMILES | melting point |
| --- | --- |
| NC(=O)Cc1cc(Oc2ccc3c(ccn3C(=O)Nc3ccc(-c4cccnc4)c(C(F)(F)F)c3)c2)ncn1 | 171 to 172 °C |
| CCCCC1=C(c2ccc(F)cc2)C(=NO)CC1 | 115 to 116 °C |
| CCCCCCCCCCCCCCCCOc1ccc(C(C)=O)o1 | 72 to 76 °C |
| CCCCOC(=O)N=C(NC(=O)c1ccccc1)SC | 99 to 101 °C |
| Cc1nc(NC(=O)Nc2cccc3c2C2CCCCN2C3=O)cs1 (stereo not given) | 146 °C |
| Brc1ccc(-c2nn[nH]n2)cc1 | 271 to 273 °C |
| CCOC(=O)C(=O)CC(=O)c1cn(Cc2ccc(F)cc2)c2c(Cl)cccc2c1=O | 164 to 165 °C |
| O=C(OCc1ccccc1)c1ncc(OCc2ccccc2)c(OCc2ccccc2)c1Br | 120 °C |
| COC(=O)C(=O)c1cc(OC)c(OCCOc2ccc3ccccc3c2)c(OC)c1 | 69 to 71 °C |
| CCOC(=O)C#CCOCC1=C(C(=O)OCC)C(c2cccc(Cl)c2Cl)C(C(=O)OC)=C(C)N1 (stereo not given) | 123 to 125 °C |
| COc1cc(N)c(Cl)cc1Br | 40 to 41 °C |
| Cc1c(Cc2cccnc2)sc2cc(C(=O)O)ccc12 | 248 to 249 °C |
| Cc1ncnn1-c1cc(F)ccc1CNC(=O)c1nc2n(c(=O)c1OCc1ccccc1)CCN2c1ccccc1 | 181 °C |
| O=C1CNc2ncc(I)cc2N1Cc1ccccc1 | 225 °C |
| COc1cccc(-c2nn(C)c3ccsc23)c1 | 99 to 101 °C |
| O=C(O)c1cc(N2C(=O)C(c3ccccc3)=C(c3ccccc3)C2=O)ccc1O | 249 to 250 °C |
| CNC(=S)NS(=O)(=O)c1cc(CCNC(=O)c2cnc3ccccc3c2)ccc1OCCOc1ccccc1 | 89 to 91 °C |
| CCOC(=O)c1cn(CC)c2nc(-c3ccncc3)c(F)cc2c1=O | 185 to 186 °C |
| COC(=O)c1[nH]ccc1OC(C)C | 77 to 79 °C |
| COc1ccc(C2=NN(C3CCN(S(=O)(=O)c4ccccc4OC(F)(F)F)CC3)C(=O)C(C)(C)C2)cc1OC | 143 to 144 °C |
| CN1CCN(C[C@H]2C(=O)Nc3ccccc3S[C@H]2c2ccccc2)CC1 (relative stereo) | 198 °C |
| CN1C=C(C(=O)O)C(C(=N)O)=NC1N1CCN(Cc2ccccc2)CC1 (stereo not given) | 158 to 160 °C |
| COc1cc2c(cc1OC)CC(C(=O)N1CCN(C(=O)c3cc(OC)c(OC)c(OC)c3)CC1)=C2 | 183 to 185 °C |
| O=Cc1cc([N+](=O)[O-])ccc1Oc1ccc(F)cc1 | 125 to 126 °C |
| O=C1c2c(cc(O)c(Cl)c2Cl)CC1(c1ccccc1)C1CCCC1 (stereo not given) | 161 to 170 °C |

| SMILES | melting point |
| --- | --- |
| N=C(NO)c1ccc(-c2ccc(-c3nc4cc(C(=N)NO)ccc4[nH]3)c(F)c2)cc1 | 281 to 283 °C |
| COc1ccc(C2CC(=O)CCC2[N+](=O)[O-])cc1OC (stereo not given) | 147 to 148 °C |
| COc1ccccc1C(=CC#N)c1ccccc1OC | 99 to 100 °C |
| CN(C)CCCN1N=C2C(=Cc3ccccc3)CSCC2C1c1ccccc1 (stereo not given) | 83 to 85 °C |
| CCOC(=O)c1nc2ncnc(NCc3ccccc3)c2[nH]1 | 181 to 185 °C |
| COC(=O)c1c(-c2ccc3ccccc3c2)ccc2ccccc12 | 139 to 140 °C |
| Cc1nn(-c2ccc(O)cc2F)c(=O)n1C(F)F | 112 to 114 °C |
| CC(C)C(=O)Nc1csc(Br)n1 | 95 °C |
| COC(c1ccc(Cl)c2nc3n(c12)CCCN3c1ccc(Cl)cc1C(F)(F)F)C1CC1 (stereo not given) | 208 to 209 °C |
| CC(Cn1cnnn1)n1nnc2cc3c(=O)n(C4CC4)nnc3cc2c1=O (stereo not given) | 233 to 235 °C |
| C=C1CC2C(CCC3(C)C2C=CC3(C)O)C2(C)CCC(=O)C=C12 (stereo not given) | 162 °C |
| Cc1ccc(N)cc1/C=C/c1nc(C(C)C)cs1 | 60 to 61 °C |
| O=C(O)c1ncn2c1CN=C(c1ccccc1)c1cc(Br)ccc1-2 | > 250 °C |
| CCCC1=C(C(=O)OCC)C(c2cccc(C)c2Cl)c2c[nH]nc2N1 (stereo not given) | 198 to 200 °C |
| COc1cc2c(cc1OC)=C(CCCl)OCC(C)(C)C=2 | 66 to 67 °C |
| CCN(CC)c1nc(NC(N)=NOC)nc(OC)n1 | 112 °C |
| CCOc1nc(NCCCCC2CC(C)(C)NC(C)(C)C2)nc(NCCCCC2CC(C)(C)NC(C)(C)C2)n1 | 95 to 104 °C |
| COc1ccc(Cn2c(N)c(NC(=O)C(C)(C)OCc3ccccc3)c(=O)[nH]c2=S)cc1OC1CCCC1 | 198 to 202 °C |
| Cc1c(-c2ccccc2)oc2c(NC(=O)NCCCl)cccc2c1=O | 213 to 214 °C |
| O=C(CCCCC1SCC2NC(=O)NC21)NCCOCCOCCN1C(=O)C(Br)=C(Br)C1=O (stereo not given) | 100 to 102 °C |
| CCOCCOc1ccc(OCc2ccccc2)cc1 | 35 to 37 °C |
| Nc1nc(-c2cc(Cl)ccc2Cl)nc(N2CC(CO)C2)n1 | 224 to 226 °C |
| O=Cc1ccc(CSCCN2C(=O)c3ccccc3C2=O)o1 | 76 to 77 °C |
| COc1ccc2c(c1)Sc1cc(OC)c(Cl)cc1C(=O)C2 | 186 to 188 °C |
| CC1(C)Oc2c(N)cccc2C1=O | 80 to 84 °C |

| SMILES | melting point |
| --- | --- |
| CCOC(=O)CN(C)c1ccc(N=O)cc1 | 55 to 56 °C |
| Cc1ccc(-c2nn(-c3cccc([N+](=O)[O-])c3)c(N)c2C(N)=O)cc1 | 237 to 238 °C |
| CCc1nn(C2CCCC2)c2cc(-c3ccccc3)ccc12 | 72 to 74 °C |
| O=c1cnc(-c2ccc(F)c(Br)c2)nn1Cc1ccc(Cl)nc1 | 138 to 140 °C |
| Cc1ccc(CNc2ccc3c(C#N)cccc3n2)o1 | 102 °C |
| CCOC(=O)c1[nH]c2cc(Cl)cc(Cl)c2c1NS(=O)(=O)c1ccccc1 | 245 to 247 °C |
| Cc1cc(C)n(-c2nc(-c3ccc(Cl)cc3)c(CCC(=O)N3CCN(CC4CCN(C)CC4)CC3)o2)n1 | 126 to 127 °C |
| Clc1ccc2nc(-c3ccccc3)cc(Cl)c2c1 | 114 to 116 °C |
| CN(C(=O)OC(C)(C)C)c1cc(Oc2cccnc2)ccc1N | 101 to 102 °C |
| CC(C)C(=O)c1cn(Cc2c(F)cccc2F)c2sc(-c3ccc(NC(=O)C(C)CO)cc3)c(CN(C)Cc3ccccc3)c2c1=O (stereo not given) | 161 to 162 °C |
| COc1cc(C=O)ccc1OCCCCCCOC(C)=O | 74 to 75 °C |
| O=C(COc1ccc(Cl)cc1Cl)Nc1ccnn1-c1c(Cl)cc(C(F)(F)F)cc1Cl | 167 to 180 °C |
| C#Cc1cccc(Nc2ncnc3cnc(F)cc23)c1 | 225 to 227 °C |
| CC(C)(C)CC(=O)NC[C@H]1CN(c2ccc(N3CCC(=CC#N)CC3)c(F)c2)C(=O)O1 | 210 to 212 °C |
| CC(C)(C)C(=O)c1ccc(CC(Cc2ccc(C(=O)C(C)(C)C)cc2)C(=O)O)cc1 | 107 to 109 °C |
| CCOC(=O)NC(=O)CNS(=O)(=O)c1ccc(N2CCC(NC[C@H](O)c3ccc(O)c(NS(C)(=O)=O)c3)CC2)cc1 | 98 to 105 °C |
| Brc1cccc(P(c2ccccc2)c2ccccc2)n1 | 81 °C |
| COc1cc2c(c(-c3cccc(C)c3C)c1)OC(CN)C2 (stereo not given) | 129 to 130 °C |
| CSC(=C[N+](=O)[O-])NCCN(C)Cc1ccc(Cl)nc1 | 93 to 95 °C |
| CC(=O)OCCCc1cc2c(s1)-n1c(C)nnc1CN=C2c1ccccc1Cl | 153 to 155 °C |
| O=C1CC2Cc3c(Cl)cccc3C2N1 (stereo not given) | 186 to 187 °C |
| O=Cc1c[nH]c2c1ccc1c3cccc(Br)c3[nH]c12 | > 250 °C |
| Cc1ccc(N(C(=O)CCl)c2c(Cl)cc(C)cc2Cl)cc1 | 140 to 141 °C |
| COc1ccc(-c2cc(-c3ccc(-c4c(Cc5ccccc5)sc5ccccc45)cc3)ccc2OCC(=O)O)cc1OC | 95 to 97 °C |
| CC(Oc1ncn(-c2ccc(C(F)(F)F)cc2)n1)C(N)=O (stereo not given) | 178 to 180 °C |

| SMILES | melting point |
| --- | --- |
| NC(=O)c1nc(Cl)cc(N)c1Cl | 240 to 241 °C |
| OC1Cc2cc(Br)ccc2Sc2ccccc21 (stereo not given) | 108 to 110 °C |
| CCOc1cc2ncc(C#N)c(Nc3ccc(F)c(Cl)c3)c2cc1OCC | 194 to 198 °C |
| N=C(Nc1ccc(CCN)cc1)c1cccs1 | 134 to 137 °C |
| Cc1ccc(-c2cccc(-c3nc(C(C)C)[nH]c3-c3cccc(C)n3)c2)cc1 | 76 to 79 °C |
| Cc1ccncc1C(N)=S | 104 to 106 °C |
| N#Cc1ccc(S(=O)(=O)c2ccc(O)cn2)cc1 | 225 to 226 °C |
| Cc1ccc(C=NO)cc1Cl | 66 to 68 °C |
| Nc1c(-c2ccc(Br)cc2)nc2ccc(F)cc2c1C(=O)O | 231 to 233 °C |
| COc1cc2ncc(C#N)c(Nc3ccccc3C(N)=O)c2cc1OC | 238 to 240 °C |
| O=C(O)CCCOc1cccc(-c2n[nH]c3c2Cc2ccccc2-3)c1 | 216 to 217 °C |
| CC(C)(C)[Si](OCC[C@H](O)CO)(c1ccccc1)c1ccccc1 | 70 to 72 °C |
| COc1ccc(S(=O)(=O)N2c3ccccc3-c3ccc(F)cc3[C@@H]2C)cc1 | 197 to 198 °C |
| CON1Cc2c(cc3ccc4c(c3c2-c2ccc3c(c2)OCO3)OCO4)C1=O | 214 to 216 °C |
| CN(Cc1ccc(NC(=O)C2=Cc3cc(-c4cc5ccccc5s4)ccc3S(=O)(=O)CC2)cc1)C1CCOCC1 | 270 to 271 °C |
| C=C(c1cc(F)ccc1O)n1ccnc1 | 164 to 166 °C |
| CC(C)n1cc(-c2nc(C(N)=O)c(N)nc2-c2ccccc2OC(F)(F)F)ccc1=O | 206 °C |
| Cc1c(OCCCCCCC(=O)N(C)c2ccccc2)ccc([N+](=O)[O-])c1C=O | 72 to 73 °C |
| O=C1CCC(c2ccccc2)(N2CCOCC2)CC1 | 116 to 119 °C |
| CCCCOCCOc1ccc(-c2ccc3c(c2)C=C(C(=O)Nc2ccc(C(O)c4ccccn4)c(OCC(F)(F)F)c2)CCN3C(=O)C(F)(F)F)cc1 (stereo not given) | 178 to 181 °C |
| CCOC(Cc1ccc(OCc2nc(C3CC3)oc2C)c2ccccc12)C(=O)O (stereo not given) | 166 to 168 °C |
| CN1CCC(O)(c2ccccc2[N+](=O)[O-])CC1 | 166 to 167 °C |
| CCN(c1nc(C)cc(C)n1)c1ccc(CC=NOC)cc1S(C)(=O)=O | 151 to 154 °C |
| CCON=C(C(=O)OCC)c1csc(NC(c2ccccc2)(c2ccccc2)c2ccccc2)n1 | 165 °C |
| O=C(NCCN(C1CC1)S(=O)(=O)c1ccccc1[N+](=O)[O-])N1CCN2C(=O)OC(c3cccc(F)c3)(c3cccc(F)c3)C2C1 (stereo not given) | 203 °C |
